We go through nine compounds from patent US20260200942A1, “PARP7 INHIBITORS AND THEIR APPLICATIONS” (CHONGQING PHARSCIN INNOBIO CO., LTD., priority 2023, published 2026).

The target of one series is T1, PARP7 (Homo sapiens, UniProt Q7Z3E1).
T1 construct: purchased BPS 80527
T1 sequence (Q7Z3E1 1-657): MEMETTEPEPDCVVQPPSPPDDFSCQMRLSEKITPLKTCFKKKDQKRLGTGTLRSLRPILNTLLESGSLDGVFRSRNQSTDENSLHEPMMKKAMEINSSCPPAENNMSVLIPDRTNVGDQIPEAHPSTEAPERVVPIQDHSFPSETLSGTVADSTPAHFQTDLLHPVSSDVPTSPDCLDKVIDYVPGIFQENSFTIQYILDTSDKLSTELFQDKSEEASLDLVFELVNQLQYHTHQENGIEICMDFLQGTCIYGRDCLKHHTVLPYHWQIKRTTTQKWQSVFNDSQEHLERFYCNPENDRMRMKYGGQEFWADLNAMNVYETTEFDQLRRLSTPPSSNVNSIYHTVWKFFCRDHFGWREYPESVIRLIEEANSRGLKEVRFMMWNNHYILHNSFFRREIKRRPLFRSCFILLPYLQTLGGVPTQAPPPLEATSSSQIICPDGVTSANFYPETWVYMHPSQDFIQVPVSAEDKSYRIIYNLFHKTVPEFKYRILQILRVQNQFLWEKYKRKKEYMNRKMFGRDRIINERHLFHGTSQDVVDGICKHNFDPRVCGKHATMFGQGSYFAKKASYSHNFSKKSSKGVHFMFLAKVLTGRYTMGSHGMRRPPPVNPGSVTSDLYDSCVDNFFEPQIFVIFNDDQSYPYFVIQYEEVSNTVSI
As to the kind of experiment: PARP7 inhibitory activity assay (histone-coated 384-well plate, chemiluminescence). It is filed as biochemical. The source says:
Inhibition rate (%) calculation formula: […]

Series [1] in a line: Liver microsomal stability study, rat. It is filed as in vitro ADME. Particulars: Rat liver microsomes. As to the method: (§1) The above compounds were diluted to a 1.5 μM intermediate working solution with 0.1 M potassium phosphate buffer containing 0.75 mg/mL liver microsomes, and then 30 μL of the intermediate working solution was dispensed into reaction plates for different time points (0, 5, 15, 30, 45, 60 min). 150 μL of methanol solution containing internal standard was added to the 0 min plate wells. For the other time points (5, 15, 30, 45, 60 min), the sample plates were pre-incubated at 37° C. for 5 min, after which the reaction was initiated with 15 μL of 6 mM NADPH solution and timing was started. 15 μL of 6 mM NADPH solution was added to the 0 min samples to balance the system. At 5 min, 15 min, 30 min, 45 min, and 60 min, respectively, 150 μL of methanol solution containing internal standard was added to the reaction wells to terminate the reaction. After the reaction was complete, the plates were shaken on a shaker at 600 rpm for 10 min, then centrifuged at 4000 rpm for 15 min. 80 μL of supernatant from each well was transferred to a 96-well sample plate containing 150 μL of ultrapure water, mixed, and then analyzed by LC/MS to calculate T1/2.
(In general: Liver microsomes are vesicles of endoplasmic reticulum, rich in cytochrome P450 enzymes.)

The nature of series [2]: Liver microsomal stability study, mouse. It is filed as in vitro ADME. Particulars: Mouse liver microsomes. On the procedure:
as §1

Series [3] can be described thus: Liver microsomal stability study, human. The conditions noted are these: Human liver microsomes. It is filed as in vitro ADME. As to the method:
as §1

The nature of series [4]: Mouse pharmacokinetic study. It is filed as in vivo. The conditions noted are these: BALB/c mice; for AUC(0-t) / Cmax / Tmax / half-life: female, mouse, plasma. The source says: • (1) Study design: Female healthy Balb/c mice (specific pathogen-free (SPF) grade) were used as test animals, divided into 2 dose groups with 3 mice in each group, for single intravenous injection and single oral gavage administration, respectively. The vehicle formulations were […] (DMSO)+10% Solutol+85% Saline and 0.5% methylcellulose (MC), respectively. • (2) Plasma sample collection and processing: Blood was collected from the orbital venous plexus of the mice. After intravenous (IV) bolus administration, samples were collected at 0.083 h, 0.25 h, 0.5 h, 1 h, 2 h, 4 h, 8 h, and 24 h. After oral (PO) administration, samples were collected at 0.25 h, 0.5 h, 1 h, 2 h, 4 h, 6 h, 8 h, and 24 h. An appropriate volume of whole blood samples was collected with EDTA-K2 anticoagulation, placed on wet ice after collection, and plasma was separated by centrifugation within 30 min (centrifugation conditions: 4000 rpm, 10 minutes, 2-8° C.). The collected plasma samples were stored in a −70° C. freezer before analysis. After analysis, the remaining plasma samples continued to be stored in a −70° C. freezer. • (3) Analytical batch processing and pharmacokinetic parameter calculation: The concentration of the test substance in the plasma samples was determined. The accuracy of quality control samples was evaluated concurrently with the analysis of the samples, with the requirement that more than 66.7% of the quality control samples have an accuracy between 80-120%. Using the plasma concentration data at different time points, pharmacokinetic parameters such as C0 (IV), Area Under the Curve (AUC)(0-t), T1/2, Cmax, Tmax, and Mean Residence Time (MRT) were calculated using WinNonlin.

In the next series the target is T2, PARP2 (Homo sapiens, UniProt Q9UGN5).
T2 construct: purchased BPS Bioscience
T2 sequence (Q9UGN5 whole entry): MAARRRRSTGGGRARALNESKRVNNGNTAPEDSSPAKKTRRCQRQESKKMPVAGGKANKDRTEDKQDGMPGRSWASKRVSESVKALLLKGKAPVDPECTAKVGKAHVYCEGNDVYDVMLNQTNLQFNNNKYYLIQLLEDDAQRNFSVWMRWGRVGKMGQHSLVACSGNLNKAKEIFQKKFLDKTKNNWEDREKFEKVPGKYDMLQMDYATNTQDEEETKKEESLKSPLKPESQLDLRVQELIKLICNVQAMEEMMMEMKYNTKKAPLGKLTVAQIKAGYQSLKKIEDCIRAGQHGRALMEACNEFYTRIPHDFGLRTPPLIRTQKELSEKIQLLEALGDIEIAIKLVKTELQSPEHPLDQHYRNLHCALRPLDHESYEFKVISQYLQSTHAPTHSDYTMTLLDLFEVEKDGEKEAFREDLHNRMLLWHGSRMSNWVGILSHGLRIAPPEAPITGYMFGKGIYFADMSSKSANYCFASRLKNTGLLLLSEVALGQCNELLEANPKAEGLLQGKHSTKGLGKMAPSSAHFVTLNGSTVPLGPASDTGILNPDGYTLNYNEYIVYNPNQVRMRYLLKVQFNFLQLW
As to the kind of experiment: PARP2 inhibitory activity assay (BPS PARP2 Chemiluminescent Activity Assay Kit). It is filed as biochemical. The source says:
The PARP2 enzyme activity assay method used in the present disclosure employs reagents from the PARP2 Chemiluminescent Activity Assay Kit from BPS Bioscience, USA. […] The test results are shown in Table 1. /” indicates not tested.

In the case of `O=c1[nH]nc(CN[C@H]2C[C@H](C(=O)N3C4CCC3CN(c3ncc(C(F)(F)F)cn3)C4)C2)cc1C(F)(F)F` [Embodiment 3], at PARP7, the IC50 (as a rule, the midpoint of a concentration-inhibition curve) lay within 0.01 to 0.1 µM. Besides, the half-life at 1 µM in series [1], in series [2] and in series [3] was > 1 h in each case.

`O=c1[nH]cc(CN[C@H]2C[C@H](C(=O)N3C4CCC3CN(c3ncc(C(F)(F)F)cn3)C4)C2)cc1C(F)(F)F` [Embodiment 4] had an IC50 on PARP7 of 0.01 to 0.1 µM. Moreover, the half-life (usually how long it takes for the measured level to halve) at 1 µM in series [1] is > 1 h; in series [2], > 1 h; in series [3], 0.5 to 1 h.

Consider `O=C(C1CN(Cc2cc(C(F)(F)F)c(=O)[nH]n2)C1)N1CCN(c2ncc(C(F)(F)F)cn2)CC1` [Embodiment 5, 4-(trifluoromethyl)-6-((3-(4-(5-(trifluoromethyl)pyrimidin-2-yl)piperazine-1-carbonyl)azetidin-1-yl)methyl)pyridazin-3(2H)-one], for which, in series [4] (PO, 10 mg/kg, 0.5% MC), the F is recorded as 66.00%, the AUC(0-t) (commonly the area under the concentration-time curve up to a stated or last time point) is 52100 ng·h/mL, the concentration peaked (Cmax) at 22000 ng/mL and the time of peak concentration (Tmax) (commonly the time from dosing to the highest level) amounted to 0.33 h. In addition, the half-life in series [4] (PO, 10 mg/kg, 0.5% MC) is 0.98 h. In addition, in series [4] (IV, 1 mg/kg), the AUC(0-t) is 7900 ng·h/mL; the Cmax – broadly, the highest concentration seen after dosing – is 4210 ng/mL; the Tmax was 0.08 h; the half-life was 1.28 h. The concentration for half-maximal inhibition (IC50) at PARP7 is 0.01 to 0.1 µM. Further, the half-life at 1 µM in series [1] was > 1 h. For the same compound, the half-life at 1 µM in series [2] was > 1 h. The half-life at 1 µM in series [3] was > 1 h.

As to `O=c1[nH]nc(CN[C@H]2C[C@H](C(=O)N3CCN(c4ncc(C(F)(F)F)cn4)CC3)C2)cc1C(F)(F)F` [Embodiment 12], in series [4] (PO, 10 mg/kg, 0.5% MC), the F was determined as 59.45%, the AUC(0-t) amounted to 10700 ng·h/mL, the Cmax amounted to 7060 ng/mL and the Tmax turned out to be 0.25 h. In addition, the half-life in series [4] (PO, 10 mg/kg, 0.5% MC) was 0.81 h. In series [4] (IV, 1 mg/kg), the AUC(0-t) was determined as 1790 ng·h/mL, the highest level (Cmax) was 1200 ng/mL, the Tmax is 0.08 h and the half-life is 0.89 h. Moreover, the IC50 at PARP7 was in the range of 0.01 to 0.1 µM. The half-life at 1 µM in series [1] is > 1 h. For the same compound, in series [2], the half-life at 1 µM was > 1 h. The half-life at 1 µM in series [3] was > 1 h.

As for `O=c1[nH]cc(CN[C@H]2C[C@H](C(=O)N3CCN(c4ncc(C(F)(F)F)cn4)CC3)C2)cc1C(F)(F)F` [Embodiment 13], the IC50 at PARP7 is 0.01 to 0.1 µM. Also, the half-life at 1 µM was > 1 h in series [1], > 1 h in series [2] and 0.5 to 1 h in series [3].

The compound `O=C(C1CN(Cc2c[nH]c(=O)c(C(F)(F)F)c2)C1)N1CCN(c2ncc(C(F)(F)F)cn2)CC1` [Embodiment 14] yielded an IC50 on PARP7 of 0.01 to 0.1 µM. For the same compound, the half-life at 1 µM in series [1], in series [2] and in series [3] was > 1 h each time.

As for `CC(=O)Nc1cc(C(F)(F)F)cnc1N1CCN(C(=O)[C@H]2C[C@H](NC(C)(C)c3cc(C(F)(F)F)c(=O)[nH]n3)C2)CC1` [Embodiment 61, N-(2-(4-((1R,3R)-3-((2-(6-oxo-5-(trifluoromethyl)-1,6-dihydropyridazin-3-yl)propan-2-yl)amino)cyclobutane-1-carbonyl)piperazin-1-yl)-5-(trifluoromethyl)pyridin-3-yl)acetamide], the concentration for half-maximal inhibition (IC50) on PARP7 is < 0.01 µM; against PARP2 it was 0.1 to 1 µM. Moreover, the half-life at 1 µM in series [1], in series [2] and in series [3] was > 1 h each time.

Consider `CC(=O)Nc1cc(C(F)(F)F)cnc1N1CCN(C(=O)[C@H]2C[C@H](NCc3cc(C(F)(F)F)c(=O)[nH]n3)C2)CC1` [Embodiment 63, N-(2-(4-((1R,3R)-3-(((6-oxo-5-(trifluoromethyl)-1,6-dihydropyridazin-3-yl)methyl)amino)cyclobutane-1-carbonyl)piperazin-1-yl)-5-(trifluoromethyl)pyridin-3-yl)acetamide], for which the IC50 was < 0.01 µM on PARP7 and 0.1 to 1 µM on PARP2. Moreover, the half-life at 1 µM in series [1], in series [2] and in series [3] was > 1 h throughout.

On to `CNC(=O)c1cc(C(F)(F)F)cnc1N1CCN(C(=O)[C@H]2C[C@H](NC(C)(C)c3cc(C(F)(F)F)c(=O)[nH]n3)C2)CC1` [Embodiment 67, N-methyl-2-(4-((1R,3R)-3-((2-(6-oxo-5-(trifluoromethyl)-1,6-dihydropyridazin-3-yl)propan-2-yl)amino)cyclobutane-1-carbonyl)piperazin-1-yl)-5-(trifluoromethyl)nicotinamide], for which the results for the IC50 against PARP7 and at PARP2 were < 0.01 µM and 0.1 to 1 µM, respectively.
